Measurements taken from patent publication US11613531B2, “Inhibitors of RHO associated coiled-coil containing protein kinase” (Kadmon Corporation, LLC, priority 2017, dated 2023).

Tested on: ppMlc (T18/S19) levels in A7R5 cells
Assay: A7R5 in-cell ELISA (pMLC)
Assay type: cell-based, Rat
Conditions: A7R5 cells, 10 μM compound
Method: Determination of Compounds ROCK Inhibitory Activity in A7R5Cells.
Rat aortic smooth muscle cell line, A7R5, cells were seeded with density of 5,000 cells/well in a 96-well plates for 24 hours and subsequently treated for 90 min with testing compounds. Cells were then fixed and processed according to the In-Cell ELISA Colorimetric Detection Kit manual (Thermo Scientific).
An A7R5 in-cell Elisa assay was performed. A7R5 cells were treated with 9 points 2 fold serial dilution of compounds and ppMlc (T18/S19) levels were determined to calculate cellular IC50 values of the compounds. Compounds of the invention gave in cell IC50s under 100 nM.
In vitro activities for the compounds were measured with Z′-lyte kinase kit (ThermoFisher Scientific). The percent inhibition rate was calculated by normalizing the kinase activity value obtained with 1 μM compound treatment against DMSO control value and then applied to the formula, [1-(compound/DMSO)]×100%. IC50s were calculated using the nonlinear regression curve fit function of the GraphPad Prism software with kinase activities data measured with 9 points 2-fold serial dilution of compounds treatment. In cell pMLC IC50s were calculated with data obtained from A7R5 cell experiments. A7R5 cells were treated with 9 points 2-fold serial dilution of compounds and ppMlc (T18/S19) levels were determined to calculate cellular IC50 values of the compounds using the nonlinear regression curve fit function of the GraphPad Prism software. NIH3T3 cells stably expressing ACTA2-promoter-driven-luciferase were applied to measure ROCK compounds functional IC50s in cells. Cells were plated in 96 well plates to confluence and treated with 9 points serial dilution of compounds in combination with TGFβ1 for 24 hr. Luciferase activities were measured and compound's IC50s were calculated using the nonlinear regression curve fit function of the GraphPad Prism software.

For `c1cc(Nc2ccc(-c3cncs3)cc2)nc(N2CCNCC2)n1` [Example 363], the “pMLC % inh A7R5 @ [conc]” value was 10.22%.

Same assay, conditions: Rattus norvegicus, A7R5, A7R5 cells, 1 μM compound; read-out: pMLC % inh A7R5 @ [conc]

Compared with `c1cc(Nc2ccc3[nH]ncc3c2)nc(N2CCC(C3CNC3)C2)n1` (stereo not shown) [Example 83, N-(2-(3-(azetidin-3-yl)pyrrolidin-1-yl)pyrimidin-4-yl)-1H-indazol-5-amine], `Fc1cnc(N2CCC(C3CNC3)C2)nc1Nc1ccc2[nH]ncc2c1` (stereo not shown) [Example 172, N-(2-(3-(azetidin-3-yl)pyrrolidin-1-yl)-5-fluoropyrimidin-4-yl)-1H-indazol-5-amine] is lower in inhibition at 1 µM: 2.1% for the first, -9.9% for the second.

Compared with `Fc1cnc(N2CCC3NCCC3C2)nc1Nc1ccc2[nH]ncc2c1` (stereo not shown) [Example 168, N-(5-fluoro-2-(octahydro-5H-pyrrolo[3,2-c]pyridin-5-yl)pyrimidin-4-yl)-1H-indazol-5-amine], `Fc1cnc(N2CC3(CCNC3)C2)nc1Nc1ccc2[nH]ncc2c1` [Example 163, N-(5-fluoro-2-(2,6-diazaspiro[3.4]octan-2-yl)pyrimidin-4-yl)-1H-indazol-5-amine] is lower in inhibition at 1 µM: 12.2% for the first, -7.8% for the second.

Going from `Fc1cnc(N2CCCC3(CCNC3)C2)nc1Nc1ccc2[nH]ncc2c1` (stereo not shown) [Example 162, N-(5-fluoro-2-(2,7-diazaspiro[4.5]decan-7-yl)pyrimidin-4-yl)-1H-indazol-5-amine] to `Fc1cnc(N2CCC3(CNC3)C2)nc1Nc1ccc2[nH]ncc2c1` [Example 159, N-(5-fluoro-2-(2,6-diazaspiro[3.4]octan-6-yl)pyrimidin-4-yl)-1H-indazol-5-amine], the inhibition at 1 µM falls from 16.7% to -12.2%.

Compared with `Cc1cc(Nc2ccc3[nH]ncc3c2)nc(N2CCC3(CC2)CNCCO3)n1` [Example 123, N-(6-methyl-2-(1-oxa-4,9-diazaspiro[5.5]undecan-9-yl)pyrimidin-4-yl)-1H-indazol-5-amine], `Cc1cc(Nc2ccc3[nH]ncc3c2)nc(N2CC3(CNC3)C2)n1` [Example 128, N-(6-methyl-2-(2,6-diazaspiro[3.3]heptan-2-yl)pyrimidin-4-yl)-1H-indazol-5-amine] is lower in inhibition at 1 µM: -0.8% for the first, -8.3% for the second.

Compared with `c1cc(Nc2ccc3[nH]ncc3c2)nc(N2CC3(CCNCC3)C2)n1` [Example 76, N-(2-(2,7-diazaspiro[3.5]nonan-2-yl)pyrimidin-4-yl)-1H-indazol-5-amine], `c1cc(Nc2ccc3[nH]ncc3c2)nc(N2CCC3(CCCNC3)C2)n1` (stereo not shown) [Example 73, N-(2-(2,7-diazaspiro[4.5]decan-2-yl)pyrimidin-4-yl)-1H-indazol-5-amine] is lower in inhibition at 1 µM: 0% for the first, -4.8% for the second.

Compared with `OCC1CNCCN1c1ncc(F)c(Nc2ccc3[nH]ncc3c2)n1` (stereo not shown) [Example 156, (1-(4-((1H-indazol-5-yl)amino)-5-fluoropyrimidin-2-yl)piperazin-2-yl)methanol], `Cc1cc(Nc2ccc3[nH]ncc3c2)nc(N2CC(C3CCCNC3)c3ccccc32)n1` (stereo not shown) [Example 139, N-(6-methyl-2-(3-(piperidin-3-yl)indolin-1-yl)pyrimidin-4-yl)-1H-indazol-5-amine] is lower in inhibition at 1 µM: 7.1% for the first, 2.2% for the second.

Same assay, conditions: Rattus norvegicus, A7R5, A7R5 cells, 10 μM compound; read-out: pMLC % inh A7R5 @ [conc]

Compared with `Cc1cnc(N2CCNC(c3ccccc3)CC2)nc1Nc1ccc2[nH]ncc2c1` (stereo not shown) [Example 94, N-(5-methyl-2-(5-phenyl-1,4-diazepan-1-yl)pyrimidin-4-yl)-1H-indazol-5-amine], `Cc1nc(N2CCNC(c3ccccc3)CC2)nc(Nc2ccc3[nH]ncc3c2)c1C` (stereo not shown) [Example 21, N-(5,6-dimethyl-2-(5-phenyl-1,4-diazepan-1-yl)pyrimidin-4-yl)-1H-indazol-5-amine] is higher in inhibition at 10 µM: 19.2% for the first, 21.1% for the second.

Compared with `CC1(C)CN(c2nccc(Nc3ccc(-c4cn[nH]c4)cc3)n2)CCN1` [Example 255, N-(4-(1H-pyrazol-4-yl)phenyl)-2-(3,3-dimethylpiperazin-1-yl)pyrimidin-4-amine], `CC1CN(c2nccc(Nc3ccc(-c4cn[nH]c4)cc3)n2)CCN1` (stereo not shown) [Example 252, N-(4-(1H-pyrazol-4-yl)phenyl)-2-(3-methylpiperazin-1-yl)pyrimidin-4-amine] is lower in inhibition at 10 µM: 72% for the first, 65% for the second.

Going from `c1cncc(-c2ccc(Nc3ccnc(N4CCNCC4)n3)cc2)c1` [Example 40, 2-(piperazin-1-yl)-N-(4-(pyridin-3-yl)phenyl)pyrimidin-4-amine] to `c1cc(Nc2ccc(-c3nnco3)cc2)nc(N2CCNCC2)n1` [Example 367, N-(4-(1,3,4-oxadiazol-2-yl)phenyl)-2-(piperazin-1-yl)pyrimidin-4-amine], the inhibition at 10 µM falls from 13.4% to 7.2%.

Going from `Fc1cnc(N2CCCNC(c3ccccc3)C2)nc1Nc1ccc2[nH]ncc2c1` (stereo not shown) [Example 141, N-(5-fluoro-2-(3-phenyl-1,4-diazepan-1-yl)pyrimidin-4-yl)-1H-indazol-5-amine] to `Clc1cnc(N2CCCNC(c3ccccc3)C2)nc1Nc1ccc2[nH]ncc2c1` (stereo not shown) [Example 183, N-(5-chloro-2-(3-phenyl-1,4-diazepan-1-yl)pyrimidin-4-yl)-1H-indazol-5-amine], the inhibition at 10 µM falls from 54.9% to 43.1%.

First: CC(C)C1CN(c2ncc(F)c(Nc3ccc4[nH]ncc4c3)n2)CCCN1 (stereo not shown) [Example 144, N-(5-fluoro-2-(3-isopropyl-1,4-diazepan-1-yl)pyrimidin-4-yl)-1H-indazol-5-amine]
Second: CCC1CN(c2ncc(C)c(Nc3ccc4[nH]ncc4c3)n2)CCN1 (stereo not shown) [Example 99, N-(2-(3-ethylpiperazin-1-yl)-5-methylpyrimidin-4-yl)-1H-indazol-5-amine]
The inhibition at 10 µM of the first is higher: 45.6% for the first, 29.6% for the second.

Going from `CC1CN(c2nccc(Nc3ccc4[nH]ncc4c3)n2)CC(C)N1` (stereo not shown) [Example 226, N-(2-(3,5-dimethylpiperazin-1-yl)pyrimidin-4-yl)-1H-indazol-5-amine] to `Cc1cnc(N2CCCNCC2)nc1Nc1ccc2[nH]ncc2c1` [Example 3, N-(2-(1,4-diazepan-1-yl)-5-methylpyrimidin-4-yl)-1H-indazol-5-amine], the inhibition at 10 µM falls from 67.7% to 54.4%.

Compared with `Cc1nc(N2CCCNCC2)nc(Nc2ccc(-c3cn[nH]c3)cc2)c1C` [Example 266, N-(4-(1H-pyrazol-4-yl)phenyl)-2-(1,4-diazepan-1-yl)-5,6-dimethylpyrimidin-4-amine], `c1ccc2c(Nc3ccc(-c4cn[nH]c4)cc3)nc(N3CCCNCC3)nc2c1` [Example 268, N-(4-(1H-pyrazol-4-yl)phenyl)-2-(1,4-diazepan-1-yl)quinazolin-4-amine] is lower in inhibition at 10 µM: 74% for the first, 63.7% for the second.

Going from `O=c1[nH]c2ccc(Nc3ccnc(N4CCNCC4)n3)cc2[nH]1` [Example 364, 5-((2-(piperazin-1-yl)pyrimidin-4-yl)amino)-1,3-dihydro-2H-benzo[d]imidazol-2-one] to `c1cc(Nc2cnc3[nH]ccc3c2)nc(N2CCNCC2)n1` [Example 369, N-(2-(piperazin-1-yl)pyrimidin-4-yl)-1H-pyrrolo[2,3-b]pyridin-5-amine], the inhibition at 10 µM falls from 6.18% to 0.9%.

Going from `c1cc(Nc2ccc(-c3cn[nH]c3)cc2)nc(N2C3CCC2CNC3)n1` [Example 257, N-(4-(1H-pyrazol-4-yl)phenyl)-2-(3,8-diazabicyclo[3.2.1]octan-8-yl)pyrimidin-4-amine] to `Cc1cc(Nc2ccc3[nH]ncc3c2)nc(N2CCNC(c3ccccc3)CC2)n1` (stereo not shown) [Example 108, N-(6-methyl-2-(5-phenyl-1,4-diazepan-1-yl)pyrimidin-4-yl)-1H-indazol-5-amine], the inhibition at 10 µM falls from 85.6% to 47.3%.

Same assay, conditions: Rattus norvegicus, A7R5, A7R5 cells, ppMlc (T18/S19)

`CC1(C)CN(c2nccc(Nc3ccc(-c4cn[nH]c4)cc3)n2)CCN1` [Example 255, N-(4-(1H-pyrazol-4-yl)phenyl)-2-(3,3-dimethylpiperazin-1-yl)pyrimidin-4-amine] and `CC1CN(c2nccc(Nc3ccc(-c4cn[nH]c4)cc3)n2)CCN1` (stereo not shown) [Example 252, N-(4-(1H-pyrazol-4-yl)phenyl)-2-(3-methylpiperazin-1-yl)pyrimidin-4-amine] are within 1.5-fold of each other in IC50: 1360 nM for the first, 1170 nM for the second.

`Fc1cnc(N2CCCNC(c3ccccc3)C2)nc1Nc1ccc2[nH]ncc2c1` (stereo not shown) [Example 141, N-(5-fluoro-2-(3-phenyl-1,4-diazepan-1-yl)pyrimidin-4-yl)-1H-indazol-5-amine] and `c1ccc2c(Nc3ccc(-c4cn[nH]c4)cc3)nc(N3CCCNCC3)nc2c1` [Example 268, N-(4-(1H-pyrazol-4-yl)phenyl)-2-(1,4-diazepan-1-yl)quinazolin-4-amine] are within 1.5-fold of each other in IC50: 2890 nM for the first, 3720 nM for the second.

Going from `Cc1nc(N2CCCNCC2)nc(Nc2ccc(-c3cn[nH]c3)cc2)c1C` [Example 266, N-(4-(1H-pyrazol-4-yl)phenyl)-2-(1,4-diazepan-1-yl)-5,6-dimethylpyrimidin-4-amine] to `c1cc(Nc2ccc(-c3cn[nH]c3)cc2)nc(N2C3CCC2CNC3)n1` [Example 257, N-(4-(1H-pyrazol-4-yl)phenyl)-2-(3,8-diazabicyclo[3.2.1]octan-8-yl)pyrimidin-4-amine], the IC50 falls from 3150 nM to 2070 nM (1.5-fold).
